Data reported in patent US20250368616A1, “NITROGEN-CONTAINING HETEROCYCLIC DERIVATIVE INHIBITOR, AND PREPARATION METHOD THEREFOR AND USE THEREOF” (SHANGHAI HANSOH BIOMEDICAL CO., LTD., priority 2021, published 2025).

What was measured:
[1] = biological target: EGFR del19/T790M/C797S mutant kinase (Homo sapiens, UniProt P00533, C797S/DEL746-750/T790M); assay: HTRF kinase assay, EGFR del19/T790M/C797S mutant kinase; type: biochemical; conditions: 120 minutes at room temperature
Description: (§1) Test Example 1. Determination of the Inhibitory Effect of the Compounds of the Present Invention on the Activity of EGFR del19/T790M/C797S and EGFR L858R/T790M/C797S Mutant Kinases
(§2) Experimental objective: The objective of this test example is to test the inhibitory activity of the compounds on the activity of EGFR del19/T790M/C797S and EGFR L858R/T790M/C797S mutant kinases.
(§3) Experimental method: This experiment used Cisbio's HTRF kinase assay method (Cisbio #62TK0PEB), wherein a catalytic reaction occurred between the substrate polypeptide TK and ATP in the presence of the tyrosine kinase with EGFR del19/T790M/C797S or EGFR L858R/T790M/C797S mutation, the substance was phosphorylated, and the activity of the kinase was characterized by measuring the content of the phosphorylated substrate generated during the reaction, and the half inhibitory concentration IC50 of the compound on the activity of EGFR del19/T790M/C797S or EGFR L858R/T790M/C797S mutant kinase was obtained.
(§4) Specific Experimental Operations were as Follows: • the kinase reaction was carried out in a white 384-well plate (Perkin Elmer #6008280), and 1-5 μL of compounds of different concentrations which were diluted with 1% DMSO-containing ddH2O were added; to the positive control wells were added 1-5 μL of 1% DMSO-containing ddH2O, followed by 1-5 μL of 0.5-5 nM 4×EGFR del19/T790M/C797S or EGFR L858R/T790M/C797S mutant kinase solution which was diluted with Dilution buffer (5× kinase buffer, MgCl2 6.65 Mm, MnCl2 1.33 mM, DTT 1.33 mM); to the negative control wells were added 1-5 μL of Dilution buffer; to all the wells were added 1-5 μL of 4 μM 4× substrate TK solution which was prepared with 10× Dilution buffer, and finally added 1-5 μL of 24 μM 4×ATP solution which was diluted with Dilution buffer to start the reaction; after reacting at room temperature for 120 minutes, 10 μL of detection solution (TK antibody 16 nM, XL665 0.5 μM) was added to each well, same was reacted at room temperature in the dark for 20 minutes, and then the […] was detected using a BioTek Synergy H1 microplate reader.
(§5) The percent inhibition data for compound-treated wells was calculated according to the positive control wells (DMSO control wells) and negative control wells (no kinase added) on the plate {% inhibition rate=100−[(test compound value−negative control value)]/(positive control value−negative control value)×100}. GraphPad prism was used to fit different concentrations and corresponding percent inhibition rate data to a 4-parameter nonlinear logistic equation to calculate IC50 values.

[2] = test system: Ba/F3 EGFR Del19/T790M/C797S cells; assay: Cell proliferation inhibition assay (Cell Titer-Glo), Ba/F3 EGFR Del19/T790M/C797S; type: cell-based; conditions: 72 hours, read-out: Ba/F3 EGFR Del19_T790M_C797S IC50
Description: (§6) Test Example 2: Cell Proliferation Inhibition Assay
(§7) Experimental objective: The objective of this test example is to test the inhibitory activity of compounds on the proliferation of different EGFR C797S drug-resistant mutant cell lines Ba/F3 EGFR Del19/T790M/C797S, Ba/F3 EGFR L858R/T790M/C797S, and Ba/F3 EGFR Del19/C797S.
(§8) • Ba/F3 EGFR Del19/T790M/C797S cells were purchased from KYinno Biotechnology Co., Ltd.; • Ba/F3 EGFR Del19/C797S cells were purchased from CoBioer Biosciences Co., Ltd.; • Ba/F3 EGFR L858R/T790M/C797S cells were purchased from CoBioer Biosciences Co., Ltd.; • Cell Titer-Glo was purchased from Promega, with a catalog number of G7573; • RPMI 1640 was purchased from Gibco, with a catalog number of 22400089; • FBS was purchased from Gibco, with a catalog number of 10091148; • cell culture plates were purchased from Corning, with a catalog number of 3610.
(§9) The inhibitory activity of the compound on the proliferation of different EGFR C797S drug-resistant mutant cell lines was detected using the Cell Titer-Glo method. The different cell lines were cultured in RPMI 1640 complete culture medium containing 10% FBS under conditions of 37° C. and 5% CO2, the cells were collected by centrifugation when growing to a certain density, and adjusted to appropriate cell density after counting, the cells were spread on a white 96-well plate at 90 μL/well, and cultured in a 37° C., 5% CO2 incubator overnight, prepared compound solutions of different concentrations were added at 10 μL/well, corresponding solvent controls were set, and all wells were cultured in a 37° C., 5% CO2 incubator for 72 hours, 50 μL of CellTiter-Glo solution was added to each well, shook and mixed evenly, and incubated in the dark for 10 minutes, and a BioTek Synergy H1 microplate reader was used for reading.
(§10) The luminescence signal value was used to calculate the inhibition rate. Graphpad Prism software was used to fit the concentration and inhibition rate to a nonlinear regression curve, so as to obtain the IC50 value, as shown in Tables 3 and 4 below for details.

[3] = test system: Ba/F3 EGFR Del19/C797S cells; assay: Cell proliferation inhibition assay (Cell Titer-Glo), Ba/F3 EGFR Del19/C797S; type: cell-based; conditions: 72 hours, read-out: Ba/F3 EGFR Del19_C797S IC50
Description: as §6, §7, §8, §9, §10

[4] = biological target: EGFR L858R/T790M/C797S mutant kinase (Homo sapiens (Human), UniProt P00533, C797S/L858R/T790M); assay: HTRF kinase assay, EGFR L858R/T790M/C797S mutant kinase; type: biochemical; conditions: 120 minutes at room temperature
Description: as §1, §2, §3, §4, §5

EGFR del19/T790M/C797S mutant kinase, sequence (P00533 with tags, fused parts or gaps C797S/DEL746-750/T790M limits assumed): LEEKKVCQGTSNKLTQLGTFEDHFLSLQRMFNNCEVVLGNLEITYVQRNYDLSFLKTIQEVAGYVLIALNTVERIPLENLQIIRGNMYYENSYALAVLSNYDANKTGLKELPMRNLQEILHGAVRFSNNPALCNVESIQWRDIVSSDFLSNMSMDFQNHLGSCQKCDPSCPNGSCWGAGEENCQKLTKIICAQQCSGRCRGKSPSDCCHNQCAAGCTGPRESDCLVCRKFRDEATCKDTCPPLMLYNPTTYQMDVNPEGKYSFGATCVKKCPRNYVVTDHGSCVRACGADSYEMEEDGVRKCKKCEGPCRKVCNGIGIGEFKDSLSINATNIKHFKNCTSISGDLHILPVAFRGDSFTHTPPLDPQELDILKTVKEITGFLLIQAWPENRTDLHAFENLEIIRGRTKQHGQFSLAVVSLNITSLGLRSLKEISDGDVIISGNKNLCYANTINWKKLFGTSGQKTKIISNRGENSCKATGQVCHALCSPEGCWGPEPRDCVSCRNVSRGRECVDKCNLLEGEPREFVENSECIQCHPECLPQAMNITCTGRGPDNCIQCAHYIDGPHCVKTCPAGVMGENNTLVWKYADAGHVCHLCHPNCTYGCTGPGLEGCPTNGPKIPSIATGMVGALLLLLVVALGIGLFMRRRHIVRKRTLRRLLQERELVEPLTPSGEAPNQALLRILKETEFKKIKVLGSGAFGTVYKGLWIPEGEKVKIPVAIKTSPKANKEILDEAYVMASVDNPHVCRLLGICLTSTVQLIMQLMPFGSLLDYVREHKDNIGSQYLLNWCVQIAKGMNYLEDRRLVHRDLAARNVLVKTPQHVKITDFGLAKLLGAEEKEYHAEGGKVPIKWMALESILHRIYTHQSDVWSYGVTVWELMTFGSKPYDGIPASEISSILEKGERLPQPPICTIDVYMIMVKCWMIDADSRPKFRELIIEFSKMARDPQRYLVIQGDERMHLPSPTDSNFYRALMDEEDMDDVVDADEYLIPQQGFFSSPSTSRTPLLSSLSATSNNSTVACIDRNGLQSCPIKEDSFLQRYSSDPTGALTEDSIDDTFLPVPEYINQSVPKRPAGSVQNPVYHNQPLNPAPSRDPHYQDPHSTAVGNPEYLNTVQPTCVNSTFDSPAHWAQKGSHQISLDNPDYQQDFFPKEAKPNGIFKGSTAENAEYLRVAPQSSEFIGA
EGFR L858R/T790M/C797S mutant kinase, sequence (P00533 25-1210 T790M/C797S/L858R): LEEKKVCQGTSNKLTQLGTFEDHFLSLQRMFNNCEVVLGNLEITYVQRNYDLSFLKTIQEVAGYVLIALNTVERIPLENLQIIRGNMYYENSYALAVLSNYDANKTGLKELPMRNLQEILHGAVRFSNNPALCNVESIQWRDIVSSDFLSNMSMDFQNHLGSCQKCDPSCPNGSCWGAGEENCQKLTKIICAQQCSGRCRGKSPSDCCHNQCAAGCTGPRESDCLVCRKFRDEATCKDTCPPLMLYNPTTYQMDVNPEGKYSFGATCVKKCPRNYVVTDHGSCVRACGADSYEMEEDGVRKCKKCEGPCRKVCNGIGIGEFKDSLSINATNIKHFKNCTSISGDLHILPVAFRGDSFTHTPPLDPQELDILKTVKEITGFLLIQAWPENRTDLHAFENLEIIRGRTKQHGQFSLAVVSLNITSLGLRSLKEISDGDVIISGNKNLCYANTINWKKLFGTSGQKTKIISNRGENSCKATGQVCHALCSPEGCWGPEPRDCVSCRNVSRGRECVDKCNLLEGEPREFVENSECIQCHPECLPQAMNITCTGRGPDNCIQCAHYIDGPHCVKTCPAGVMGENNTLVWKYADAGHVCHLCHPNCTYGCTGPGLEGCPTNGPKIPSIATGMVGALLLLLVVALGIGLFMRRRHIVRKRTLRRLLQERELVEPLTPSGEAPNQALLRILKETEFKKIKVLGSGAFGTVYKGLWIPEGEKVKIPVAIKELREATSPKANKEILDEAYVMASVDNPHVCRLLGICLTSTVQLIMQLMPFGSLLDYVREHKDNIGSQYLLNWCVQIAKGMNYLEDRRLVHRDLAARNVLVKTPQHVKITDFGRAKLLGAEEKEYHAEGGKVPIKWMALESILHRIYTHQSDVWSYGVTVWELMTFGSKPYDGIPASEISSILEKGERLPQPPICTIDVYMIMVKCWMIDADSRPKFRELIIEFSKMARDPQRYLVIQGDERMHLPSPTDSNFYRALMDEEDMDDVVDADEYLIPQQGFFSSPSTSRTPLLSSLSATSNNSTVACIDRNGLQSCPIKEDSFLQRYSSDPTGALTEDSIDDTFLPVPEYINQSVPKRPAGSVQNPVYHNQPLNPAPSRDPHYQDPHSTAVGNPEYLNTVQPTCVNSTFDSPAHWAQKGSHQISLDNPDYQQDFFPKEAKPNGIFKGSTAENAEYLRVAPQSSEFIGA

| IC50 [1] [nM] | IC50 [2] [nM] | IC50 [3] [nM] | IC50 [4] [nM] | SMILES |
| --- | --- | --- | --- | --- |
| 9.4 | 5.5 | 10 | – | CC(C)c1cnc(N2CC(CS(C)(=O)=O)C2)c2cnc(Nc3ccnc(-c4cnn(S(=O)(=O)C5CC5)c4)n3)cc12 [Example 3, N-(2-(1-(cyclopropylsulfonyl)-1H-pyrazol-4-yl)pyrimidin-4-yl)-5-isopropyl-8-(3-((methanesulfonyl)methyl)azetidin-1-yl)-2,7-diazanaphthalen-3-amine] |
| 3.6 | – | 54 | 0.73 | CC(C)c1ccc(N2C[C@H](CS(C)(=O)=O)[C@H]2C)c2cnc(Nc3ccnc(-c4cnn(C5CCN(C)CC5)c4)n3)cc12 [Example 14, 5-isopropyl-8-((2R,3S)-2-methyl-3-((methanesulfonyl)methyl)azetidin-1-yl)-N-(2-(1-(1-methylpiperidin-4-yl)-1H-pyrazol-4-yl)pyrimidin-4-yl)isoquinolin-3-amine] |
| 2.5 | – | 41 | 1.9 | CC(C)c1ccc(N2C[C@H](CS(C)(=O)=O)[C@H]2C)c2cnc(Nc3ccnc(-c4cnn(C5CC5)c4)n3)cc12 [Example 15, N-(2-(1-cyclopropyl-1H-pyrazol-4-yl)pyrimidin-4-yl)-5-isopropyl-8-((2R,3S)-2-methyl-3-((methanesulfonyl)methyl)azetidin-1-yl)isoquinolin-3-amine] |
| 3 | – | – | 0.71 | CC(C)c1ccc(N2C[C@H](CS(C)(=O)=O)[C@H]2C)c2cnc(Nc3ccnc(-c4cn[nH]c4)n3)cc12 [Example 17, N-(2-(1H-pyrazol-4-yl)pyrimidin-4-yl)-5-isopropyl-8-((2R,3S)-2-methyl-3-((methanesulfonyl)methyl)azetidin-1-yl)isoquinolin-3-amine] |
| 2.5 | – | – | 1 | CC(C)c1ccc(N2C[C@H](CS(C)(=O)=O)[C@H]2C)c2cnc(Nc3ccnc(-c4cnn(CC5(C#N)CC5)c4)n3)cc12 [Example 19, 1-((4-(4-((5-isopropyl-8-((2R,3S)-2-methyl-3-((methanesulfonyl)methyl)azetidin-1-yl)isoquinolin-3-yl)amino)pyrimidin-2-yl)-1H-pyrazol-1-yl)methyl)cyclopropane-1-carbonitrile] |
| 6.2 | – | – | 0.92 | CC(C)c1ccc(N2C[C@H](CS(C)(=O)=O)[C@H]2C)c2cnc(Nc3ccnc(-c4cnn(C5COC5)c4)n3)cc12 [Example 20, 5-isopropyl-8-((2R,3S)-2-methyl-3-((methanesulfonyl)methyl)azetidin-1-yl)-N-(2-(1-(oxetan-3-yl)-1H-pyrazol-4-yl)pyrimidin-4-yl)isoquinolin-3-amine] |
| – | – | 78 | 1 | CC(C)c1ccc(N2C[C@H](CS(C)(=O)=O)[C@H]2C)c2cnc(Nc3ccnc(-c4cnn(CC(F)(F)F)c4)n3)cc12 [Example 26, 5-isopropyl-8-((2R,3S)-2-methyl-3-((methanesulfonyl)methyl)azetidin-1-yl)-N-(2-(1-(2,2,2-trifluoroethyl)-1H-pyrazol-4-yl)pyrimidin-4-yl)isoquinolin-3-amine] |
| – | 9.1 | 24 | – | Cc1nn(C)cc1-c1nccc(Nc2cc3c(C(C)C)ccc(N4C[C@H](CS(=O)(=O)N(C)C)[C@H]4C)c3cn2)n1 [Example 61, 1-((2R,3S)-1-(3-((2-(1,3-dimethyl-1H-pyrazol-4-yl)pyrimidin-4-yl)amino)-5-isopropylisoquinolin-8-yl)-2-methylazetidin-3-yl)-N,N-dimethyl methanesulfonamide] |
| – | – | 78 | 0.17 | COCC1(Cn2cc(-c3nccc(Nc4cc5c(C(C)C)ccc(N6C[C@H](CS(C)(=O)=O)[C@H]6C)c5cn4)n3)cn2)CC1 [Example 66, 5-isopropyl-N-(2-(1-((1-(methoxymethyl)cyclopropyl)methyl)-1H-pyrazol-4-yl)pyrimidin-4-yl)-8-((2R,3S)-2-methyl-3-((methanesulfonyl)methyl)azetidin-1-yl)isoquinolin-3-amine] |
| – | 11 | 10 | – | CC(C)c1ccc(N2C[C@H](CS(C)(=O)=O)[C@H]2C)c2cnc(Nc3ccnc(-c4cn(C5CC5)nc4Cl)n3)cc12 [Example 70, N-(2-(3-chloro-1-cyclopropyl-1H-pyrazol-4-yl)pyrimidin-4-yl)-5-isopropyl-8-((2R,3S)-2-methyl-3-((methanesulfonyl)methyl)azetidin-1-yl)isoquinolin-3-amine] |
| – | 11 | 8.5 | – | COCCn1cc(-c2nccc(Nc3cc4c(C(C)C)ccc(N5C[C@H](CS(C)(=O)=O)[C@H]5C)c4cn3)n2)c(Cl)n1 [Example 73, N-(2-(3-chloro-1-(2-methoxyethyl)-1H-pyrazol-4-yl)pyrimidin-4-yl)-5-isopropyl-8-((2R,3S)-2-methyl-3-((methanesulfonyl)methyl)azetidin-1-yl)isoquinolin-3-amine] |
| – | 14 | 14 | – | CC(C)c1ccc(N2C[C@H](N3CCOC3=O)[C@H]2C)c2cnc(Nc3ccnc(-c4cn(C)nc4Cl)n3)cc12 [Example 74, 3-((2R,3S)-1-(3-((2-(3-chloro-1-methyl-1H-pyrazol-4-yl)pyrimidin-4-yl)amino)-5-isopropylisoquinolin-8-yl)-2-methylazetidin-3-yl)oxazolidin-2-one] |
| – | 12 | 27 | – | CC(C)c1ccc(N2C[C@H](CS(C)(=O)=O)[C@H]2C)c2cnc(Nc3ccnc(-c4cn(C5CCOCC5)nc4Cl)n3)cc12 [Example 78, N-(2-(3-chloro-1-(tetrahydro-2H-pyran-4-yl)-1H-pyrazol-4-yl)pyrimidin-4-yl)-5-isopropyl-8-((2R,3S)-2-methyl-3-((methanesulfonyl)methyl)azetidin-1-yl)isoquinolin-3-amine] |
| – | 7.7 | 11 | – | CC(C)c1ccc(N2CC(N(C)S(C)(=O)=O)C2)c2cnc(Nc3ccnc(-c4cn(CCO)nc4Cl)n3)cc12 [Example 79, N-(1-(3-((2-(3-chloro-1-(2-hydroxyethyl)-1H-pyrazol-4-yl)pyrimidin-4-yl)amino)-5-isopropylisoquinolin-8-yl)azetidin-3-yl)-N-methyl Methanesulfonamide] |
| – | 10 | 17 | – | CC(O)Cn1cc(-c2nccc(Nc3cc4c(C(C)C)ccc(N5C[C@H](CS(C)(=O)=O)[C@H]5C)c4cn3)n2)c(Cl)n1 (stereo partly drawn) [Example 80, 1-(3-chloro-4-(4-((5-isopropyl-8-((2R,3S)-2-methyl-3-((methanesulfonyl)methyl)azetidin-1-yl)isoquinolin-3-yl)amino)pyrimidin-2-yl)-1H-pyrazol-1-yl)propan-2-ol] |
